US10265298B2, “Method of increasing the bioavailability of silybin” (Macau University of Science and Technology, priority 2017, dated 2019)

Biological target: T1, BCRP (Homo sapiens, UniProt Q9UNQ0)
T1 sequence (Q9UNQ0 1-655): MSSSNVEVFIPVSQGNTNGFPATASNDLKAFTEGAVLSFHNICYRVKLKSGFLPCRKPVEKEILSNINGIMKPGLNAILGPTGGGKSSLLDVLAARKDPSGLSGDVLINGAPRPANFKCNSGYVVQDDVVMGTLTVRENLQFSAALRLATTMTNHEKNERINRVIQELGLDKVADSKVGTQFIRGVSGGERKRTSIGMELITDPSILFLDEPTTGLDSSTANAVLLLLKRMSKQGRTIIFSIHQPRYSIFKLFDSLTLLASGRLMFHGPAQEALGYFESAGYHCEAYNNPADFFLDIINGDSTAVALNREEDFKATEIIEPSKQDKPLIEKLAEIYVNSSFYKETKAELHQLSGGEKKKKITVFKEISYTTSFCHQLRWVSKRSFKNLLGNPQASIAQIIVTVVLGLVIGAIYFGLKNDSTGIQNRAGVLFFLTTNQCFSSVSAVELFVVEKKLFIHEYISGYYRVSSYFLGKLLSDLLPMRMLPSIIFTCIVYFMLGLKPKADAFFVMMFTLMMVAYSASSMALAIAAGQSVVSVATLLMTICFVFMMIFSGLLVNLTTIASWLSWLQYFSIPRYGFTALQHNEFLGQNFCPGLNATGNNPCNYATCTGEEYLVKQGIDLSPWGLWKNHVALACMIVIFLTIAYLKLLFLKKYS
Test: Inhibition of pheophorbide A (Ph A) efflux in MDCKII-BCRP cell monolayers
Conditions: not given
Procedure: (§1) Parental Madin-Darby canine kidney II (MDCKII), multi-drug resistance gene 1-Madin-Darby canine kidney II (MDR1-MDCKII), breast cancer resistance protein-Madin-Darby canine kidney II (BCRP-MDCKII), and multi-drug resistance protein 2-Madin-Darby canine kidney II (MRP2-MDCKII) cells were kindly provided by the Netherlands Cancer Institute (Amsterdam, Netherlands) and frozen at −80° C. The MDCKII cells were cultured at 37° C./5% CO2 in Dulbecco's modified Eagle's medium supplemented with 10% fetal bovine serum, 1% nonessential amino acids, and 2% penicillin-streptomycin. The cells were seeded on transwell inserts (Corning Inc.) at a density of 2.0×10^5 cells/cm^2 and grown for 4-5 days to form confluent monolayers.
(§2) Bidirectional transport assays in human colorectal adenocarcinoma 2 (Caco-2) and Madin-Darby canine kidney II (MDCK II) was carried out by dosing substrates in assay buffer to either the apical chamber (A-to-B) or the basolateral chamber (B-to-A); cells were then incubated at 37° C. with shaking at 50 rotations per minute (rpm), and 100 μl samples were collected at 30, 60, 90, 120 and 180 minutes from the basolateral chamber to study the drug transport of AP to BL, or apical chamber to study the drug transport of BL to AP. Cell monolayers were then washed twice with ice-cold assay buffer and lysed with methanol on ice for 10 minutes. For inhibition studies, Caco-2 or MDCK II cell monolayers were pre-incubated with an inhibitor in both apical and basolateral chambers for 30 minutes, and bidirectional transport of 10 μM silybin was conducted in the absence (control) or presence of the inhibitor in both chambers. […] For fluorescence intensity detection, samples collected from AP or BL side were immediately detected in 96 well black plate by Microplate ultraviolet-visible spectroscopy (UV/VIS) spectrophotometer (TECAN infinite M200 PRO, Männedorf, Switzerland). In all cases, each determination was performed in triplicate.
(§3) The apparent permeability coefficients (Papp) were calculated as Papp=dQ/dt×1/(C“0”A) where dQ/dt (mM/sec) is the rate of permeation of the drug across the cells, C0 (millimolar (mM)) is the donor compartment concentration at time zero and A (cm^2) is the area of the cell monolayer. C0 is obtained from analysis of the dosing solution at the start experiment. Efflux Ratio (ER)=Papp (B to A)/Papp (A to B), while Papp (B−A) is the Papp value measured in the B to A direction, and Papp (A−B) is the Papp value measured in the A to B direction. 1.5 Preparation of Rat Sandwich-Cultured Hepatocytes
(§4) (*, P<0.05;**, P<0.01; ***, P<0.001 vs absence of any inhibitor. n=3).
as §4

Compound | mean efflux ratio of pheophorbide A (Ph A)
pheophorbide A [Ph A] | 2.82

System: not listed separately
Test: in vitro
Assay type: in vitro ADME, rat
Conditions: male, Sprague Dawley, rat
Procedure: Sandwich-cultured rat hepatocytes (SCHs) were established according to previously described methods with minor modifications. Primary rat hepatocytes were isolated from male Sprague Dawley® (SD) rats (220-270 g) using a collagenase perfusion as described previously and plated at a density of 7.4×10^5 cells/2 ml/well onto six-well BioCoat plates. Approximately 24 hours later, hepatocytes were overlaid with 2 ml of 0.25 mg/ml BD Matrigel basement membrane matrix in Dulbecco's modified Eagle medium (DMEM) containing 1% volume by volume percentage (v/v) insulin/transferrin/selenium culture supplement, […] dexamethasone, 2 mM L-glutamine, 1% (v/v) minimum essential medium nonessential amino acids, 1% penicillin-streptomycin. Hepatocytes were cultured for 4 days to allow extensive formation of canalicular networks between cells before experimentation and the medium was changed daily.
Sandwich-cultured hepatocytes (SCHs) were pre-incubated in 2 milliliters (ml) of warm Hank's Balanced Salt Solution (HBSS) with or without Ca^2+ at 37° C. for 15 minutes; the tight junctions of the bile canaliculi open temporally after exposure to HBSS without Ca^2+. Subsequently, cells were incubated at 37° C. for 20 minutes with 1.5 ml of standard HBSS containing silybin (10 μM), or MK 571 (50 μM) as a positive control, or baicalein (25, 15.8, 5, 1.58, 0.5, 0.16 μM), or tangeretin (25, 15.8, 5, 1.58, 0.5 μM). After 20 min, cells were washed three times with ice-cold standard HBSS. The cell samples were lysed by sonication in 1 ml of water for 5 seconds with the ultrasonic cell disruption system (SONICS & […], INC., Newtown, Conn., USA). Conjugated silybin and unconjugated (free) silybin were quantified by high-performance liquid chromatography-tandem mass spectrometry (HPLC-MS/MS). Transport function was normalized to the protein content of the hepatocytes which was evaluated by bicinchoninic acid (BCA) protein assay (Pierce Chemical, Rockford, Ill.). The biliary excretion index (BEI; %) and in vitro biliary clearance (Clbiliary; ml/min/kg) were calculated by using B-CLEAR technology (Qualyst, Inc., Research Triangle Park, N.C.) based on the following equations: […]

Compound | inhibition at 20 min, 50 μM [%]
CN(C)C(=O)CCSC(SCCC(=O)[O-])c1cccc(/C=C/c2ccc3ccc(Cl)cc3n2)c1.[Na+] (centres unmarked) [MK571, (E)-3-[[[3-[2-(7-chloro-2-quinolinyl)ethenyl]phenyl][[3-(dimethylamino)-3-oxopropyl]thio]methyl]thio]-propanoic acid, sodium salt] | 100

System: Caco-2 cell monolayers
Test: Bidirectional transport across Caco-2 cell monolayers
Conditions: Ko143 at 0.5 μM (BCRP inhibitor); quinidine at 20 μM (P-gp inhibitor)
Procedure: (§5) Human colorectal adenocarcinoma-2 (Caco-2) cells was obtained from American Type Culture Collection (Manassas, Va.) and frozen at −80° C. For transport study, cells were cultured at 37° C./5% CO2 in Dulbecco's modified Eagle's medium supplemented with 10% fetal bovine serum, 1% nonessential amino acids, and 1% penicillin-streptomycin. […] The culture medium was changed 24 hours after seeding to remove cell debris and dead cells; after which the medium was changed on alternate days. Monolayers were used for transport assays between 21 and 23 days for Caco-2 cells. Prior to transport study, cell monolayers were certified based on internal criteria on transepithelial electrical resistance (TEER) values.
(§6) Prior to transport study, cell monolayers were certified based on our internal criteria on transepithelial electrical resistance (TEER) values, and only monolayers that met the acceptance criteria (transepithelial electrical resistance >500 Ω·cm^2 for Caco-2 cells and >200 Ω·cm^2 for MDCK cells) were selected for transport studies.
as §2, §3

Compound | effect of efflux transporter inhibitor on efflux/absorption of silybin
COc1ccc2c3c([nH]c2c1)[C@H](CC(C)C)N1C(=O)[C@H](CCC(=O)OC(C)(C)C)NC(=O)[C@@H]1C3 [Ko143, (3S,6S,12aS)-1,2,3,4,6,7,12,12a-octahydro-9-methoxy-6-(2-methylpropyl)-1,4-dioxo-pyrazino[1′,2′:1,6]pyrido[3,4-b]indole-3-propanoic acid 1,1-dimethylethyl ester] | inhibited the efflux ratio of silybin

System: not listed separately
Test: as above
Conditions: human, Caco-2
Procedure: as §5, §6, §2, §3

Compound | Papp at 180 min [×10⁻⁶ cm/s]
O=c1c(-c2ccc(O)cc2)coc2cc(O)cc(O)c12 [genistein] | 13

Biological target: MRP2 (Homo sapiens, UniProt Q92887)
Sequence (Q92887 whole entry): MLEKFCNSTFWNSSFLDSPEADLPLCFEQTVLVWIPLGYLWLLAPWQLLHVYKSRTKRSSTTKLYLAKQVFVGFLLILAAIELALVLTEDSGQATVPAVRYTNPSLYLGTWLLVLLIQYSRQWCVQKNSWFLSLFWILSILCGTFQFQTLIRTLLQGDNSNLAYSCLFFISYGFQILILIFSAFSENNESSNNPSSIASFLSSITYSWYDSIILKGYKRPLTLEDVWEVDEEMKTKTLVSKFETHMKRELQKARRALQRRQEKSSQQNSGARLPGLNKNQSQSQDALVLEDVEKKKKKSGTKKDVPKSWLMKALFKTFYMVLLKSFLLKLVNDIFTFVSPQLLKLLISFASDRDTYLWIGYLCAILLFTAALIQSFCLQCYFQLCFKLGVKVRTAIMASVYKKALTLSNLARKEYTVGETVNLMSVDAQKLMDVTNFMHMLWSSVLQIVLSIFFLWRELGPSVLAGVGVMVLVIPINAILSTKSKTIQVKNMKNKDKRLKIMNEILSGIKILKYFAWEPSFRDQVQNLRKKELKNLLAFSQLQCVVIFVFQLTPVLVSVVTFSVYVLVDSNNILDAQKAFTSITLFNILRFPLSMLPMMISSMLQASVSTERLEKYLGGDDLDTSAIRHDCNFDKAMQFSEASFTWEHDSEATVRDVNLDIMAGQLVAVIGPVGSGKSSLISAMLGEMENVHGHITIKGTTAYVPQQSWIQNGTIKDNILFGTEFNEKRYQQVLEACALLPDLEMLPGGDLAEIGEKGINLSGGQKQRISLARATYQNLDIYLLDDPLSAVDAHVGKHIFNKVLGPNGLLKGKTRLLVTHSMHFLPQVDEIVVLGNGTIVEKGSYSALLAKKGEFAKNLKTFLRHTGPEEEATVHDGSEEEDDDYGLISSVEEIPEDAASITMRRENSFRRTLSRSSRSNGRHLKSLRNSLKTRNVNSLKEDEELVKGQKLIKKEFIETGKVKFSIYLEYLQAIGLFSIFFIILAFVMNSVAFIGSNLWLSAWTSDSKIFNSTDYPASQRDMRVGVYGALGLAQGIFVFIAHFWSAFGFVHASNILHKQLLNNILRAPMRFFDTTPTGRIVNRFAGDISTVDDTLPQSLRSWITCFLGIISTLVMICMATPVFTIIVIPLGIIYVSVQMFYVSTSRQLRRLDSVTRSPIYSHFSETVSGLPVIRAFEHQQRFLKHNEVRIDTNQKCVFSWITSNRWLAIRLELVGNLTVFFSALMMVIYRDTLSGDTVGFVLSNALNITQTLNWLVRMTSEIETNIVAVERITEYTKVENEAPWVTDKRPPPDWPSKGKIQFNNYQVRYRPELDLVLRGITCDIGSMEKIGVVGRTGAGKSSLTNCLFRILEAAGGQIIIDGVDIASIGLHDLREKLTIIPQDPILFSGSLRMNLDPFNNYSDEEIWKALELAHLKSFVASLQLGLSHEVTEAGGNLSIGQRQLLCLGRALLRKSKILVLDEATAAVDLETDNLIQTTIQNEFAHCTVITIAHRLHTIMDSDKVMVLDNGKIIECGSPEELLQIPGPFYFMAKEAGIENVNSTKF
Test: cell-based
Conditions: dog, 180 min
Procedure: as §1, §2, §3, §4, §4

Compound | efflux ratio of CDCFDA in the presence of inhibitor
CN(C)C(=O)CCSC(SCCC(=O)[O-])c1cccc(/C=C/c2ccc3ccc(Cl)cc3n2)c1.[Na+] (centres unmarked) [MK571, (E)-3-[[[3-[2-(7-chloro-2-quinolinyl)ethenyl]phenyl][[3-(dimethylamino)-3-oxopropyl]thio]methyl]thio]-propanoic acid, sodium salt] | 1.11

System: Caco-2 cells
Test: Glucuronidation of silybin in Caco-2 cells (LC-MS peak area of silybin glucuronides)
Assay type: in vitro ADME, human
Conditions: Homo sapiens, Caco-2; silybin 10 μM, test compound 20 μM co-incubation; read-out: inhibition on the glucuronide conjugation of silybin
Procedure: The analysis of silybin and total concentrations of glucuronides and sulfates was performed on an Agilent HP 1100 LC-MS system (Agilent, CA). A Waters ACQUITY UPLC® BEH C18 Column (1.7 μm, 2.1×50 mm, Waters Corp., Ireland) was used for detection with a C18 Security Guard cartridge (4×2.0 mm i.d., Phenomenex, Torrance, Calif.). Silybin A and silybin B were well separated using optimized gradient elution with methanol (mobile phase B) and 0.1% formic acid in water (mobile phase A) as mobile phase at a flow rate of 0.4 ml/min with a run time of 10 minutes. The gradient employed was as follows (time: mobile phase B percentage): 0 min: 25%, 6 minutes: 40%, 6.5 minutes: 25%.
MS parameters including: capillary voltage, −4000 V; nebulizer pressure, 40 pounds per square inch (psi); drying gas, 9 liters per minute (L/min); drying gas temperature, 325° C.; fragment voltage, 35 volts; dwell time, 200 milliseconds (ms); scan mode, selective ion monitoring (SIM) with [M-H]− for silybin (mass-to-charge ratio (m/z) 481), mono-glucuronide (m/z 657), and NG (m/z 271), respectively. LC-MS data were obtained by Agilent ChemStation Software.
Silybin is primarily metabolized to glucuronide (about 55%) and sulfate (about 28%) conjugates in human plasma after oral administration. To examine whether the co-incubation of flavonoids could affect the conjugation of silybin, the peak area of silybin glucuronides was measured by LC-MS (FIG. 6). Identification of glucuronides in the samples was based on their MS in-source fragmentations (m/z 657).

Compound | inhibition at 20 µM [%]
O=C(O)[C@H]1O[C@@H](Oc2cc3oc(-c4ccccc4)cc(=O)c3c(O)c2O)[C@H](O)[C@@H](O)[C@@H]1O [baicalin] | > 50
O=c1cc(-c2ccccc2)oc2cc(O)cc(O)c12 [chrysin] | > 50
COc1cc(/C=C/C(=O)CC(=O)/C=C/c2ccc(O)c(OC)c2)ccc1O [curcumin] | > 50
O=C1c2c(O)cc(O)cc2O[C@H](c2cc(O)c(O)c(O)c2)[C@H]1O [dihydromyricetin] | > 50
O=c1c(O)c(-c2ccc(O)c(O)c2)oc2cc(O)ccc12 [fisetin] | > 50
COc1cc(-c2oc3cc(O)cc(O)c3c(=O)c2O)ccc1O [isorhamnetin] | > 50
COc1ccc(-c2oc3cc(O)cc(O)c3c(=O)c2O)cc1 [kaempferide] | > 50
O=c1c(O)c(-c2ccc(O)cc2)oc2cc(O)cc(O)c12 [kaempferol] | > 50
O=c1c(O)c(-c2ccc(O)c(O)c2)oc2cc(O)cc(O)c12 [quercetin] | > 50

Same assay, conditions: silybin 10 μM, test compound 20 μM co-incubation

Compound | effect on glucuronide metabolites / glucuronide conjugation of silybin
O=C(O[C@@H]1Cc2c(O)cc(O)cc2O[C@@H]1c1ccc(O)c(O)c1)c1cc(O)c(O)c(O)c1 [(−)-ECG] | did not significantly inhibit the conjugation
CN(C)C(=O)CCSC(SCCC(=O)[O-])c1cccc(/C=C/c2ccc3ccc(Cl)cc3n2)c1.[Na+] (centres unmarked) [MK571, (E)-3-[[[3-[2-(7-chloro-2-quinolinyl)ethenyl]phenyl][[3-(dimethylamino)-3-oxopropyl]thio]methyl]thio]-propanoic acid, sodium salt] | almost undetected
COc1ccc2c(c[n+](C)c3c4cc5c(cc4ccc23)OCO5)c1OC [chelerythrine] | did not significantly inhibit the conjugation
COc1ccc(-c2cc(=O)c3c(O)cc(O)cc3o2)cc1O [diosmetin] | almost undetected
O=c1c(O)c(-c2ccccc2)oc2cc(O)cc(O)c12 [galangin] | almost undetected
COc1ccc([C@@H]2CC(=O)c3c(O)cc(O[C@@H]4O[C@H](CO[C@@H]5O[C@@H](C)[C@H](O)[C@@H](O)[C@H]5O)[C@@H](O)[C@H](O)[C@H]4O)cc3O2)cc1O [hesperidin] | did not significantly inhibit the conjugation
O=c1cc(-c2ccc(O)c(O)c2)oc2cc(O)cc(O)c12 [luteolin] | almost undetected
O=c1c(O)c(-c2ccc(O)cc2O)oc2cc(O)cc(O)c12 [morin] | almost undetected
Oc1ccc(C=Cc2cc(O)cc(O)c2)cc1 [resveratrol] | almost undetected
